Experimental data as given in patent publication US10576102B2, “KOC1-derived peptide and vaccine including same” (ONCOTHERAPY SCIENCE, INC., priority 2014, dated 2020).
“Also recorded” adds a separate entry of the source.

Columns and labels:
[1] = test system: peptide-pulsed C1R-A03; test: IFN-gamma ELISA of CTL line and CTL clone (HLA-A*0301); assay type: cell-based, human
Protocol: CTLs were propagated in culture using methods similar to those disclosed by Riddell et al. (Walter E A et al., N Engl J Med 1995, 333(16): 1038-44; Riddell S R et al., Nat Med 1996, 2(2): 216-23). The CTLs were co-cultured in a total of 25 ml AIM-V medium containing 5% AS (AIM-V/5% AS) and 40 ng/ml anti-CD3 antibody with two types of Mitomycin C-treated human B lymphoblastoid cell lines at 5×10^6 cells/flask. One day after beginning of the culturing, 120 IU/ml IL-2 was added to the culture. On days 5, 8 and 11, a fresh AIM-V/5% AS medium containing 30 IU/ml IL-2 was added to the culture (Tanaka H et al., Br J Cancer 2001, 84(1): 94-9; Umano Y et al., Br J Cancer 2001, 84(8): 1052-7; Uchida N et al., Clin Cancer Res 2004, 10(24): 8577-86; Suda T et al., Cancer Sci 2006, 97(5): 411-9; Watanabe T et al., Cancer Sci 2005, 96(8): 498-506).
Dilution of CTLs was carried out to make 0.3, 1 and 3 cells/well in 96 round-bottomed microtiter plates (Nalge Nunc International). The CTLs were co-cultured with two types of Mitomycin C-treated human B lymphoblastoid cell lines at 1×10^4 cells/well in a total of 150 micro-1/well AIM-V/5% AS medium with 30 ng/ml anti-CD3 antibody and 125 IU/ml IL-2. Ten days later, IL-2 was added to the medium at 50 micro-1/well to reach a final concentration of 125 IU/ml. […]

[2] = test system: peptide-pulsed C1R-A03; test: In vitro CTL induction, IFN-gamma ELISPOT assay (HLA-A*0301); assay type: cell-based, human; settings: CTLs induced with peptide-pulsed DCs from HLA-A*0301-positive volunteers; day 21; vs peptide-pulsed C1R-A03, compared with unpulsed control
Protocol: C1R (C1R-A03) that stably expresses HLA-A*0301 was used as a stimulator cell. A cDNA encoding the open-reading frame of HLA-A*0301 was amplified by PCR and cloned into an expression vector. C1R cells were transfected with the expression vector, and then selected using G418 (Invitrogen) for two weeks. The G418-selected cells were seeded into wells containing G418-added culture medium in a 96-well plate, and further cultured for 30 days. The exogenous HLA-A*0301 expression in C1R cells was verified by flow cytometric analysis.
Monocyte-derived dendritic cells (DCs) were used as the antigen-presenting cell to induce a cytotoxic T lymphocyte (CTL) response against peptides presented on human leukocyte antigens (HLAs). As described in the other sections, DCs were generated in vitro (Nakahara S et al., Cancer Res 2003, 63(14): 4112-8). Specifically, peripheral-blood mononuclear cells isolated from healthy volunteers (HLA-A*0301-positive) with the Ficoll-Paque plus solution (Pharmacia) were separated by attaching to plastic tissue culture dishes (Becton Dickinson) and concentrated as a monocyte fraction. The monocyte-concentrated population was cultured in the presence of 1000 IU/ml granulocyte macrophage colony-stimulating factor (R&D System) and 1000 IU/ml interleukin(IL)-4 (R&D System) in an AIM-V medium (Invitrogen) containing 2% heat-inactivated autologous serum (AS). After seven days of culturing, the cytokine-induced DCs were pulsed with 20 micro-g/ml each of the synthesized peptides in an AIM-V medium at 37 degrees C. for three hours in the presence of 3 micro-g/ml beta 2-microglobulin. The generated cells appeared to express on their cell surface DC-associated molecules such as CD80, CD83, CD86 and HLA class II (data not shown). Next, these peptide-pulsed DCs were inactivated by X-ray irradiation (20 Gy), and mixed in a 1:20 ratio with autologous CD8^+ T cells obtained by positive selection using the CD8 Positive Isolation Kit (Dynal). These culture products were seeded in a 48-well plate (Corning). Each well was made to contain 1.5×10^4 peptide-pulsed DCs, 3×10^5 CD8^+ T cells and 10 ng/ml IL-7 (R&D System) in 0.5 ml of the AIM-V/2% AS medium. Three days later, these culture products were added with a final concentration of 20 IU/ml IL-2 (CHIRON). On day 7 and day 14, T cells were further stimulated with peptide-pulsed autologous DCs. The DCs were prepared every time by the same method as above. […]

[3] = test system: COS7 cells transfected with both KOC1 and HLA-A*0301; test: Specific CTL activity against target cells expressing KOC1 and HLA-A*0301; assay type: cell-based, African green monkey; settings: listed as KOC1-A03-10-120
Protocol: Specifically, peptide-pulsed C1R-A03 (1×10^4 cells/well) was prepared as the stimulator cell. The induced CTLs, i.e., CTL lines and CTL clones, were used as the responder cell. The IFN-gamma ELISPOT assay and IFN-gamma ELISA were performed according to the manufacturer's manual.
A cDNA encoding the open-reading frame of a target gene or HLA-A*0301 was amplified by PCR. The PCR-amplified product was cloned into an expression vector. Either or both of the target gene-expressing vector and the HLA-A*0301-expressing vector were transfected into […], which is a cell line negative for the target gene and HLA, using Lipofectamine 2000 (Invitrogen) following the manufacturer's recommended protocol. Two days after transfection, the transfected cells were harvested using versene (Invitrogen), and used as the target cell for CTL activity assay (5×10^4 cells/well).
The CTL clone established against KOC1-A03-10-120 (SEQ ID NO: 27) was investigated for their ability to recognize target cells expressing KOC1 and the HLA-A*0301 molecule. COS7 cells transfected with both full-length KOC1 and the HLA-A*0301 gene (a specific model of target cells expressing KOC1 and the HLA-A*0301 gene) were prepared as the target cell. COS7 cells transfected with either full-length KOC1 or HLA-A*0301 were prepared as the control.

Sequence: AVVNVTYSSK (a peptide derived from KOC1) [SEQ ID NO: 27]
- IFN-gamma production of CTL clone, ELISA ([1]; CTL clone by limiting dilution, peptide-pulsed C1R-A03, listed as KOC1-A03-10-120): Potent IFN-gamma production
- IFN-gamma production of CTL line, ELISA ([1]; CTL line, target cells pulsed with the peptide vs not pulsed, C1R-A03): potent IFN-gamma production
- peptide-specific CTL activity (IFN-gamma production), ELISPOT [2]: potent IFN-gamma production
- specific CTL activity of CTL clone against target cells expressing KOC1 and HLA-A*0301 ([3]; COS7 transfected with both full-length KOC1 and HLA-A*0301): specific CTL activity; also recorded: potent CTL activities
- specific CTL activity of CTL clone against control cells ([3]; COS7 transfected with either full-length KOC1 or HLA-A*0301): a significant specific CTL activity was not shown; also recorded: a significant specific CTL activity was not detected
